Laboratory results from patent publication US7851449B2, “Peptide, pharmaceutical composition, and a method of treating microcirculation disorders” (Obschestvo S Ogranichennoi Otvetstvennostyu “SIA Peptides”, priority 2006, dated 2010).
Marks after values point to notes of the source that are not given here. Peptide text beside a SMILES is read from it.

Key:
[1] = system: white mongrel male rats; assay: Sub-acute toxicity, 90 days daily intramuscular administration; assay type: in vivo; conditions: daily i.m. 90 days, doses exceeding the therapeutic one by 100-1000 times
Method: The study of sub-acute toxicity was performed on 60 white mongrel male rats with body weight of 160-240 g. […] Morphology and properties of the animals' peripheral blood were studied before the administration of the substance, as well as on the 30th, 60th and 90th day after the beginning of the administration. Upon completion of the experiment biochemical and coagulologic indices of the blood were also evaluated.

[2] = system: vascular wall explants; assay: Development of vascular wall explants (area index); assay type: cell-based, Wistar rats
Method: The experiments were conducted on 32 fragments of vascular wall from the peripheral artery of Wistar rats with body weight of 150-200 g. Nutritional medium for explants cultivation consisted of 35% Eagle's solution, 25% calf fetal serum, 35% Hanx solution, 5% chicken embryonic extract, with the addition of glucose (0.6%), insulin (0,5 units/ml), penicillin (100 units/ml), glutamine (2 mM). […] Peptide H-Lys-Glu-Asp-OH was added into the medium, in the concentration of 1, 10, 100 and 200 ng/ml.
Area index (AI), i.e. the ratio of total explant area together with the growth zone to the initial area of vascular wall fragment served as the criterion of biologic activity. AI values were expressed in percent, control AI values being considered as 100%.

[3] = system: rats with experimental parodontitis; assay: Microcirculation in rats with experimental parodontitis (gingiva biomicroscopy, laser dopplerography); assay type: in vivo; parameters: capillaries density per area unit: unit not given here; conditions: for diameter of the capillaries: in µm
Method: The experiments were conducted on 45 white mongrel male and female rats with body weight of 180-200 g. The model of light parodontitis was induced by the method of differentiated feeding of rats with standard granulated PK-120 forage for 1.5 months.
The animals were divided into 3 groups 15 rats in each: the animals of the first group, suffering from parodontitis didn't receive any treatment, rats in the second group suffering from experimental parodontitis were injected with 0.1 ml of sterile 0.9% NaCl solution into the mucous of the gingiva transitional fold (control); the animals of the third group with experimental parodontitis were subjected to a daily single injection of H-Lys-Glu-Asp-OH peptide in the dose of 2 μg in the 0.1 ml of sterile 0,9% NaCl solution into the mucous gingiva transitional fold with simultaneous rubbing in of peptide solution for 10 days.
During all experiments there was conducted a biomicroscopy of mucous membrane of the rats gingiva under nembutal anaesthesia with usage of contact object lenses and estimated the blood flow rate in capillaries by means of laser capillary blood flow analyzer LAKK-01. The studies were conducted in 3 areas of the gingiva, in the free gingiva, attached gingiva and transitional fold in case of 100 magnification. Clinical signs of the parodontitis were evaluated visually.

[4] = system: skin capillaries of patients with hypovitaminosis; assay: Skin capillary resistance in patients with hypovitaminosis (Rumpel-Leede-Konchalovskiy cuff test); assay type: in vivo
Method: The study was conducted on 25 patients aged 19-35, reporting signs of hypovitaminosis in spring. The patients were randomly divided into 2 groups.
The patients of the main group were divided into three sub-groups depending on the hypovitaminosis severity. Patients suffering from the severe hypovitaminosis were subjected to a daily single intramuscular injection of pharmaceutical composition containing H-Lys-Glu-Asp-OH peptide as its active base, in the dose of 5.0 mg in 1.0 ml of sterile 0.9% NaCl solution for 10 days; patients with moderately sever hypovitaminosis—in the dose of 100.0 μg, and patients with mild signs of hypovitaminosis—in the dose of 1.0 μg.
Control group consisted of 18 patients, subjected to an injection of physiological solution following the same scheme. Both groups received only balanced vitamin containing diet.
The estimation of the H-Lys-Glu-Asp-OH peptide effect on resistance of skin capillaries was conducted by means of Rumpel-Leede-Konchalovskiy capillary fragility test. A blood-pressure cuff was applied to the upper part of the arm of the patients. Then there was maintained pressure up to 200 mmHg for 3 minutes. Skin capillary resistance was evaluated on the area of the dosed load on skin capillaries (under the cuff). Hemorrhages were counted with a help of the magnifying glass.
Skin capillary resistance was graded according to the five-point scale: […]

[5] = system: patients with purpura senilis; assay: Hemostasis indices and Hess test in patients with purpura senilis; assay type: in vivo
Method: The study was conducted on 23 patients aged 70-82, suffering from purpura senilis, who complained of frequent spontaneous hemorrhages on the face, neck, forearms and hands. The patients reported progressive development of the disease.
The patients were randomly divided into two groups. The main group consisted of 12 patients, who were injected with pharmaceutical composition, containing peptide H-Lys-Glu-Asp-OH as its active base, in the dose of 100 μg in 1.0 ml of physiological solution daily intramuscularly for 10 days. Control group consisted of 11 patients, injected with sterile physiological solution following the same scheme.
Complains of the patients were analyzed in dynamics, also there were conducted general blood and urine tests, blood biochemical test. In order to study hemostasis there were made blood coagulogramm and Hess test with a tourniquet.

[6] = system: male guinea pigs; conditions: in vivo
Method: (§1) The studies of chronic toxicity were conducted for 6 months, basing on the term of recommended clinical administration of the substance, on 96 male guinea pigs with body weight of 300-340 g. Experimental animals received the peptide daily, once a day, intramuscularly, for 6 months in the doses of 1 μg/kg, 0.1 mg/kg, 1 mg/kg in 0.5 ml of sterile 0.9% NaCl solution. Control animals received sterile 0.9% NaCl solution in the same volume and by the same schedule. Traditional methods were used for the evaluation of the following indices of the animals' peripheric blood: the quantity of erythrocytes, hemoglobin, reticulocytes, thrombocytes, leukocytes, leukocyte formula, erythrocyte sedimentation rate (ESR), erythrocyte resistance. Alongside with that, the content of total protein in the serum was identified using Lowry's method, as well as potassium and sodium content using the method of plasma spectrophotometry. Upon the completion of the experiment pathomorphologic studies of animal brain and spinal cord, spinal cord ganglia, thyroid gland, parathyroid glands, adrenal glands, testis, pituitary body, heart, lungs, aorta, liver, kidneys, urinary bladder, pancreas, stomach, small intestine, large intestine, thymus, spleen, lymph nodes and bone marrow were performed.

[7] = system: male guinea pigs; assay: Chronic toxicity, 6 months daily intramuscular administration; peripheric blood morphology and biochemical indices; conditions: long-term administration
Method: as §1

SMILES: NCCCCC(N)C(=O)NC(CCC(=O)O)C(=O)NC(CC(=O)O)C(=O)O (stereo not drawn) [H-Lys-Glu-Asp-OH, lysyl-glutamyl-asparagine acid] (H-Lys-Glu-Asp-OH; configuration not given here)
- side effects in long-term administration (subacute toxicity) [1]: absence of any side effects
- Area index (AI) growth as compared to the control AI ([2]; 100 ng/ml, 3rd day of cultivation, statistically significant): 24%
- effect on vascular wall explants after longer cultivation ([2]; 7 days of cultivating, same concentrations): same stimulating effect
- biomicroscopy of gingival mucous membrane ([3]; attached gingiva and transitional fold, 2 μg daily for 10 days): complete correction of the microcirculation
- index of microcirculation (IM) ([3]; attached gingiva, 2 μg daily for 10 days, NaCl control 0.63±0.04): 0.22±0.05
- diameter of the capillaries ([3]; attached gingiva, 2 μg daily for 10 days, NaCl control 9.8±0.35): 7.8±0.20
- blood flow rate (laser dopplerography) ([3]; attached gingiva, 2 μg daily for 10 days, NaCl control 17±0.7): 20±1.1 conv. units
- capillaries density per area unit ([3]; average of gingiva parts, 2 μg daily for 10 days, norm 29.3±2.3, NaCl control 30±1.5): 34±2.7
- diameter of the capillaries ([3]; free gingiva, 2 μg daily for 10 days, NaCl control 12.3±0.36 (μm printed only)): 8.2±0.1
- blood flow rate (laser dopplerography) ([3]; free gingiva, 2 μg daily for 10 days, norm 18±1.3, NaCl control 15±1.5): 20±0.9 conv. units
- index of microcirculation (IM) ([3]; free gingiva, 2 μg daily into gingiva for 10 days, normal 0.21±0.30, NaCl control 0.75±0.03): 0.29±0.15
- index of microcirculation (IM) ([3]; transitional fold, 2 μg daily for 10 days, NaCl control 0.39±0.02): 0.20±0.18
- diameter of the capillaries ([3]; transitional fold, 2 μg daily for 10 days, NaCl control 9.1±0.09): 6.57±0.1
- blood flow rate (laser dopplerography) ([3]; transitional fold, 2 μg daily for 10 days, NaCl control 19±1.2): 19±2.3 conv. units
- Cuff test indices ([4]; After administration, daily i.m. 1.0 μg, 100.0 μg or 5.0 mg by severity, 10 days, P < 0.05 vs before): II* (from 6 to 15)
- Cuff test indices ([4]; Before administration (baseline of the peptide group)): III-IV
- number of skin hemorrhages ([4]; before treatment, patients of both groups): 30-47
- number of skin hemorrhages ([4]; main group after the treatment, control group unchanged): 6-8
- Ethanol test ([5]; 100 μg daily i.m. 10 days, healthy 0, control 43.8): 14.3** % of the positive cases
- Fibrinogen ([5]; 100 μg daily i.m. 10 days, healthy 3.2 ± 0.4, control 2.9 ± 0.1): 2.5 ± 0.1 g/L
- Prothrombin time ([5]; 100 μg daily i.m. 10 days, healthy 12.5 ± 0.1, control 12.4 ± 0.4): 13.3 ± 0.1 s
- Thrombin time ([5]; 100 μg daily i.m. 10 days, healthy 18.2 ± 0.6, control 16.0 ± 0.2): 17.1 ± 0.2 c
- Activated partial thromboplastin time ([5]; 100 μg daily i.m. 10 days, healthy 32.3 ± 2.1, control 48.0 ± 1.3): 58.9 ± 0.7 s
- Euglobulin fibrinolysis ([5]; 100 μg daily i.m. 10 days, healthy 150.0 ± 6.8, control 163.5 ± 5.0): 156.2 ± 3.9 min
- Time of recalcification ([5]; 100 μg daily i.m. 10 days, healthy 178.0 ± 14.0, control 147.3 ± 4.2): 164.2 ± 2.4
- Hess test (vascular walls durability) ([5]; after administration of the pharmaceutical composition): reduction in the number of hemorrhages
- side effects in long-term administration (chronic toxicity) ([6]; guinea pig): absence of any side effects
- changes in guinea pig blood morphology and biochemical indices [6]: no statistically significant changes
- pathologic alterations (general status, blood indices, organ morphology, cardiovascular, respiratory, liver and kidney functions) [7]: no pathologic alterations
